Molecules are shown by their SMILES. Like-named read-outs stand apart in the source and are kept apart here. A value given as a limit tells only on which side of the number the result lay.

Data on one molecule can be found in patent US20020009527A1, “CONTAMINATION-RESISTANT ANIMAL FEEDSTUFFS” (BOBBY J BLAND, priority 1992, published 2002).

Assay [1] has as its system Escherichia coli. The following applies: fine mist (43 microns); all quantity levels. The protocol: A sterilized poultry starter mash (500 grams/treatment quantity level) was treated with 37 wt. % formaldehyde solution in quantities of 0.66, 1.33 and 2.00 pounds dry weight of formaldehyde per ton. One set of samples was treated with a coarse spray (270 microns) at 1.8 gal/hr and another was treated with fine mist (43 microns) at 25.5 gal/hr. Each sample of 500 grams was challenged with 20 ml of a liquid inoculum of Escherichia coli (10^6 colonies/ml) one week after treatment.

A further assay relates to Salmonella typhimurium. The following applies: hydraulic nozzle; 1.32 lb/ton; inoculated after 7 days storage; 24 h incubation.
The conditions of assay [2]: 1.0 pound formaldehyde (dry wt.) per ton of feed. How it is done: Chickens (1,400,000 broilers) were raised with steam pelletized formaldehyde-treated feed and 250,000 broilers were raised with conventional steam pelletized feed. This test was conducted from the time the chicks were a day old until market weight which is 7 to 8 weeks.
The subject of a further assay is E. coli. The protocol: The term “resistant to contamination by pathogenic bacteria” means that a challenge with 1000 colonies per gram of feed results in death of substantially all the bacteria within 48 to 72 hours. […] Sampling procedures for obtaining representative samples of feed are described in Example 16, so that the coefficient of variation can be readily determined.

The subject of assay [3] is Escherichia coli.
Protocol: Poultry starter mash (8000 g) was distributed in one gallon glass jars (2000 g/jar). The mash was autoclaved at 121° C. and 15 psi for one hour on two consecutive days. The sterile poultry starter mash was mixed thoroughly and subsampled using a Humboldt sample splitter to obtain seven 500 g subsamples. […] After treatment the samples were stored at 24° C. for 7 days prior to the recontamination.
The identity of an isolate of Escherichia coli obtained from poultry feed was confirmed by biochemical and serological tests. The isolate was used to inoculate milk dilution bottles containing 90 ml of nutrient both. The inoculated bottles were incubated at 35° C. for 18-24 hours. After incubation the contents of several milk dilution bottles were combined in a sterile 1000 ml Erlenmeyer flask, mixed and the level of Escherichia coli determined by serially diluting the nutrient broth with buffered phosphate. The dilutions were plated onto MacConkey's agar. The inoculated plates were incubated at 35° C. for 18-24 hours. After incubation, the number of E. coli colonies was counted.
After seven days of storage, the subsamples (500 g) were individually inoculated with 20 ml of a nutrient broth culture of E. coli (10^6 colonies/ml). The inoculated feed was transferred to sterile one quart containers with screw cap lids. After 24 hours incubation at 25° C., the treatment samples were split to obtain log subsamples. Each subsample was placed into a milk dilution bottle containing 90 ml of buffered phosphate. The bottles were placed on a wrist action shaker and agitated for 30 minutes. The samples were serially diluted with buffered phosphate and the dilutions plated onto MacConkey's agar (MA) or Hektoen Enteric agar (HEA). The inoculated plates were incubated at 35° C. for 18-24 hours. After incubation, the number of E. coli colonies was counted. […] In this procedure a 25 g subsample was incubated in 225 ml lactose broth for 18-20 hours at 35° C. The inoculated broth was streaked on plates of MacConkey's agar and incubated for 24 hours at 35° C.
The procedure of Example 8 was repeated using an inoculum containing 10^4 colonies/ml of E. coli.

Protocol for Salmonella typhimurium: Poultry starter mash was distributed in one gallon glass jars (2000 g/jar). The mash was autoclaved at 121° C. and 15 psi for one hour on two consecutive days. The sterile poultry starter mash was mixed thoroughly and subsampled using a Humboldt sample splitter to obtain seven 500 g subsamples. […] After treatment the samples were stored in paper bags at 24° C. prior to the recontamination.
An isolate of Salmonella typhimurium was obtained from poultry feed and was serotyped by the United States Department of Agriculture (USDA) National Veterinary Services Laboratory in Ames, Iowa. The isolate was used to inoculate milk dilution bottles containing 90 ml of nutrient broth. The inoculated bottles were incubated at 35° C. for 18-24 hours. After incubation, the contents of several milk dilution were combined in a sterile 1000 ml Erlenmeyer flask and mixed. The level of Salmonella typhimurium was determined by serially diluting the nutrient broth with buffered phosphate solution and the dilutions plated on modified lysine iron agar. The inoculated plates were incubated at 35° C. for 18-24 hours. After incubation, the number of Salmonella typhimurium colonies was counted.
After 7 days of storage, the subsamples of poultry starter mash (500 g) were individually inoculated with 20 ml of the nutrient broth culture of S. typhimurium (10^3 colonies/gram). […]

Turning to `C=O` [Formaldehyde, formaldehyde], the “further time free of detectable E. coli (test then discontinued)” value with Escherichia coli [1] worked out at 60 days. The “time after inoculation until free of detectable E. coli” value with Escherichia coli [1] was ≤ 48 h. Further, in the assay on Salmonella typhimurium, the “S. typhimurium colonies per gram of feed” value was 2.94 × 10^2 COLONIES/GRAM. The molecule also had an MORTALITY in assay [2] (broilers, day old to market weight (7 to 8 weeks)) of 6%. In assay [2] (pounds of feed required to produce one pound live weight gain), the “FEED CONVERSION” value came to 2.25. Besides, the “resistance to contamination (time)” value is reported as “about 60 days” in the assay with E. coli (2 lbs. dry wt. of formaldehyde/ton, 2.0% CV) and “about 30 days” in the assay with E. coli (4 lbs. dry wt. of formaldehyde per ton of finished feed, 7% CV). Also, the E. coli colonies/g is reported as 1.11 × 10^2 COLONIES/GRAM with Escherichia coli [3] (atomizing nozzle, 0.66 lb/ton, inoculum 10^6 colonies/ml (Example 8)); 8.78 × 10^3 COLONIES/GRAM in the assay on Escherichia coli [3] (hydraulic nozzle, 0.66 lb/ton, inoculum 10^4 colonies/ml (Example 9)); 2.74 × 10^5 COLONIES/GRAM in the assay on Escherichia coli [3] (hydraulic nozzle, 0.66 lb/ton, inoculum 10^6 colonies/ml (Example 8)); 4.33 × 10^3 COLONIES/GRAM in the assay with Escherichia coli [3] (hydraulic nozzle, 1.32 lb/ton, inoculum 10^4 colonies/ml (Example 9)); 3.67 × 10^3 COLONIES/GRAM with Escherichia coli [3] (hydraulic nozzle, 1.32 lb/ton, inoculum 10^6 colonies/ml (Example 8)); 3.33 × 10^2 COLONIES/GRAM in the assay with Escherichia coli [3] (hydraulic nozzle, 2.00 lb/ton, inoculum 10^4 colonies/ml (Example 9)). The E. coli colonies/g with Escherichia coli [3] (hydraulic nozzle, 2.00 lb/ton, inoculum 10^6 colonies/ml (Example 8)) is 1.04 × 10^2 COLONIES/GRAM.
